# Measured values from publication PMC10994559 (PLOS Neglected Tropical Diseases, 2024).
# Like-named read-outs stand apart in the source and are kept apart here.
# Experiments:
# L. major promastigotes = assay: L. major promastigote viability, resazurin reduction; type: cell-based, Leishmania major; details: Leishmania major, read-out: viability, L.major promastigote (25 µM)
# Source text: (§1) The infectivity of the parasites was boosted by passaging in Balb/c mice and culturing the infected lymph nodes after six weeks. L. infantum (MHOM / BR / 76 / M4192) parasite was passaged in the same media formulation with 0.5% urine.
# [1] = tested on: L. infantum promastigotes; assay: L. infantum promastigote viability, resazurin reduction; type: cell-based, Leishmania infantum; details: Leishmania infantum, sheet LTC_compound_viability, value ± spread; for viability at 2.5 µM: read-out: viability, L. infantum promastigote (2.5 µM); for viability at 25 µM: read-out: viability, L. infantum promastigote (25 µM)
# Source text: as §1
# [2] = tested on: L. major axenic amastigotes; assay: L. major axenic amastigote viability, resazurin reduction; details: Leishmania major; for viability at 2.5 µM: read-out: viability, L.major amastigote(2.5 µM)
# Method: L. major LV561(MHOM/IL/67/LRC-L137 JERICHO II) amastigotes were passaged in Grace insect medium supplemented with NaHCO3, 0.1% amikin and 20% of FCS (pH: 5.4) and kept at 33°C.
# Exponential growth phase promastigotes of L. major or L. infantum and axenic amastigotes (L. major) were harvested and seeded in 384 well plates (white, non-transparent, tissue culture treated, flat bottom; Corning) (0.5x10^5 cells per well). Compounds were pre-dispensed into the plate with an Echo 650 acoustic dispenser (Beckman Coulter). After 72h incubation, resazurin was added (1:10 v/v) from a […] stock in PBS, followed by incubation for six hours. Then, fluorescence intensity was measured using a microplate reader (Synergy H1, BioTek) with excitation filter: 550 nm and emission filter: 590 nm. Efficient compounds were selected for the next round of viability assay with 2.5 μM concentrations of the compounds. […] All experiments were performed with AmB as a positive control drug in parallel.
# Axenic amastigotes, the relevant form that persists in the infected host, were generated in the lab through established procedures, employing harsh pH (pH 5) and high temperature (33°C) conditions.
# T. brucei brucei BSF = assay: T. brucei BSF viability, resazurin reduction; type: cell-based, Trypanosoma brucei brucei; details: Trypanosoma brucei; for viability at 25 µM: read-out: viability, T.brucei (25 µM)
# Method: T. brucei brucei (strain 427 Lister) blood stream form (BSF) parasites were passaged in complete HMI-9 media supplemented with 10% FCS, Pen-Strep (0.1%) and 2-mercaptoethanol (0.014 v/v) and kept in a 37° C CO2 incubator in filter-cap flasks.
# (§2) Viability of T. brucei brucei BSF and T. cruzi trypomastigotes was assayed with fluorescence resazurin reduction assay, essentially as described above. […] Next, selected compounds were tested at 2.5 μM concentration, and promising compounds subjected to 18 concentrations dose response analyses. AN3057 and AmB were used as a control drug in T. brucei and T. cruzi, respectively.
# T. cruzi trypomastigotes = assay: T. cruzi viability, resazurin reduction; type: cell-based, Trypanosoma cruzi; details: Trypanosoma cruzi; for viability at 2.5 µM: read-out: viability, T.cruzi (2.5 µM); for viability at 25 µM: read-out: viability, T.cruzi (25 µM)
# Method: T. cruzi (Y strain) trypomastigotes were passaged in liver infusion broth media supplemented with tryptose, NaCl, Na2HPO4, KCl, glucose, hemin, Pen-Strep (1%), 10% FCS (pH: 7.2) and kept at 28°C.
# as §2
# E. histolytica = E. histolytica viability, ATP luminescence (Cell titer glo); type: cell-based, Entamoeba histolytica; details: Entamoeba histolytica; for viability at 2.5 µM: read-out: viability, E.histolytica (2.5 µM); for viability at 25 µM: read-out: viability, E.histolytica (25 µM)
# Method: Entamoeba histolytica (strain B2-5) was passaged in TY-1 medium (Trypticase peptone BBL, Yeast extract BBL, glucose, NaCl, K2HPO4, KH2PO4, cysteine, ascorbic acid, ammonium iron citrate, adult bovine serum, Diamond tween 80, penicillin G, amikacin (pH:6.8)) and kept in 37°C incubator in completely filled tubes with closed lid.
# Viability of E. histolytica was assayed via a luminescence assay based on ATP quantification in the live cells. Briefly, 2.5x10^4 cell/ml were exposed to 25 μM of compounds in 96 well plates (non-transparent, tissue culture treated, flat bottom; SPL Life Sciences) in triplicate for 48h. Plates were incubated in sealed anaerobic bags (Oxoid AGS) together with an Anaerogen compact bag (Thermo Scientific) and anaerobic indicator (Thermo Scientific) at 37°C. Then, Cell titer glo reagent (Promega) was added to the reaction (1:5) according to manufacturers’ instruction. After 15 min of orbital shaking, followed by 10 min incubation at RT, ATP-bioluminescence was quantified at RT using a Synergy H1 plate reader (Synergy H1, BioTek). Metronidazole was included as control drug in all the assays for E. histolytica. Test compounds indicating significant growth reduction in the primary screen were subjected to potency determination. These secondary screens were essentially carried out as detailed above, but with a 9 to 16-point concentration range of the test compounds spanning 0.01–100 μM.
# [3] = Cytotoxicity assay J774, resazurin reduction; type: cell-based, murine; details: mouse, J774 macrophage cells; for viability at 72 h, 2.5 µM: read-out: viability, J774 (2.5 µM); for viability at 72 h, 25 µM: read-out: viability, J774 (25 µM)
# Method: (§3) Mammalian cell lines (J774 and HepG2) were passaged in RPMI media supplemented with MEM, Pen-Strep (1%) and 10% FCS. Cultures were kept at 37°C incubator with 5% CO2 in filter-cap flasks.
# (§4) Murine macrophage cells (J774) and human hepatocyte carcinoma HepG2 cells were seeded at 0.5x10^5 cell/well in 384 well plates in triplicate, exposed to serial dilution of compounds, dispensed using an Echo 650 acoustic dispenser (Labcyte). After incubation for 72 h at 37°C, 5% CO2, cell viability was determined using fluorescence resazurin reduction assay (λEx: 550 nm; λEm: 590 nm).
# [4] = tested on: intracellular L. infantum amastigotes; assay: Parasite rescue assay (intramacrophage, J774 infected with L. infantum); type: cell-based, Leishmania infantum; details: J774, 25 µM; intracellular amastigote; read-out: viability, intracellular L. major amastigote (25 µM)
# [5] = tested on: intracellular L. infantum amastigotes; assay: as above; type: cell-based, Leishmania infantum
# Method: After 24 h incubation, cells were washed five times with serum free RPMI and exposed to a serial dilution of test compounds, prepared using an acoustic dispenser (Echo 650, Labcyte), in RPMI (2% FCS). After two days, cells were washed thrice, and 20 μl of 0.05% SDS in RPMI was added upon removal of the supernatant. Upon incubation under orbital shaking for 30 seconds, cell lysis was stopped by addition of 180 μl M199 medium supplemented with 10% FCS. […] Then, fluorescence intensity of the samples was measured with a microplate reader (Synergy H1, BioTek) with λEx: 550 nm and λEm: 590 nm. Percent of viability was calculated according to cell only and media controls.
# J774A.1 cells (J774) were infected with L. infantum metacyclic promastigotes. […] After controlled lysis of the infected macrophages, the released parasites were quantified using a resazurin based viability assay.
# [6] = tested on: Murine macrophage cells (J774); assay: Cytotoxicity assay J774, resazurin reduction; type: cell-based; details: cytotoxicity, 72 h
# Method: as §3, §4
# [7] = read-out: viability, L.major amastigote (25 µM)
# [8] = 2.5 µM, read-out: viability, T.brucei (2.5 µM)
Compound,viability at 25 µM (L. major promastigotes; 72 h) [%],viability at 25 µM (L. major promastigotes; 25 µM) [%],viability at 2.5 µM [1] [%],viability at 25 µM [1] [%],"viability at 25 µM [2, 7] [%]",viability at 2.5 µM (T. brucei brucei BSF; [8]) [%],viability at 25 µM (T. brucei brucei BSF) [%],viability at 2.5 µM (T. cruzi trypomastigotes) [%],viability at 25 µM (T. cruzi trypomastigotes) [%],viability at 2.5 µM (E. histolytica) [%],viability at 25 µM (E. histolytica) [%],"viability at 72 h, 2.5 µM [3] [%]","viability at 72 h, 25 µM [3] [%]",melting point [°C],viability at 25 µM [4] [%],viability at 2.5 µM [2] [%],further results
"N[C@@H](Cc1ccccc1)[C@@H](O)CNc1ccc(F)cc1F [LTC-1032, (2S,3S)-3-Amino-1-((2,4-difluorophenyl)amino)-4-phenylbutan-2-ol]",86.3 ± 2.23,0.57 ± 0.34,84.1 ± 3.01,9.17 ± 0.49,76 ± 0.96,-0.94 ± 0.33,2.18 ± 0.88,59.8 ± 1.24,29 ± 1.22,56.3 ± 3.32,118 ± 17.6,96.3 ± 3.07,96.6 ± 11.9,89 to 91,73 ± 5.58,–,"viability at 2.5 µM (T. brucei brucei BSF; 72 h, read-out: Residual viability, T.brucei (2.5 µM), BSF, 2.5 µM, 72 h): < 10%"
"Cc1ccc(NC[C@H](O)[C@@H](N)Cc2ccccc2)cc1 [LTC-1043, (2S,3S)-3-Amino-4-phenyl-1-(p-tolylamino)butan-2-ol]",83.4 ± 5.16,22.1 ± 5,71.6 ± 5.44,16.9 ± 2.12,22.1 ± 2.55,80.6 ± 2.56,2.22 ± 1.09,61.9 ± 0.89,31.9 ± 1.78,74.3 ± 21.6,97.3 ± 19.4,95.7 ± 7.77,93.5 ± 8.83,57 to 59,63.4 ± 7.61,76.2 ± 2.46,–
"CC(C)(C)c1ccc(NC[C@H](O)[C@@H](N)Cc2ccccc2)cc1 [LTC-1034, (2S,3S)-3-Amino-1-((4-(tert-butyl)phenyl)amino)-4-phenylbutan-2-ol]",79.3 ± 17.2,6.26 ± 1.21,68 ± 22.2,3.46 ± 0.12,15.2 ± 1.86,72.8 ± 4.34,2.34 ± 1.3,60.1 ± 2.2,30.8 ± 2.5,52 ± 6.13,123 ± 5.09,96.6 ± 5.47,64.1 ± 4.5,74 to 76,105 ± 5.69,73.9 ± 0.76,"viability at 25 µM ([2]; 72 h, read-out: Residual viability, L.major amastigote (25 µM)): 15.2%"
CC(C)(C)OC(=O)NC(Cc1ccccc1)C(O)CNc1ccc(C(C)(C)C)cc1 (stereo not drawn) [LTC-1035],89.5 ± 1.08,2.19 ± 1.75,68.3 ± 1.6,0.84 ± 0.54,27.7 ± 0.6,71.2 ± 5.31,2.22 ± 0.96,63.9 ± 2.75,25.6 ± 1.61,48.5 ± 2.26,101 ± 21.2,92.3 ± 5.33,95.4 ± 11.3,–,11.4 ± 1.86,71.4 ± 0.91,"EC50 ([5]; Leishmania infantum, J774, read-out: EC50 L. infantum rescue assay, intramacrophage (J774), 18 concentrations): 6.7 ± 1.7 µM; EC50 ([5]; read-out: EC50 L. infantum rescue assay, intramacrophage (J774), 18 concentrations): 6.67 ± 1.7 µM; EC50 (T. brucei brucei BSF; read-out: EC50 T. brucei BSF, dose response, triplicate, ± SD (Table 2) / ± SE (S3 Table)): 2.9 ± 1.7 µM; EC50 ([6]; Mus musculus, J774, 72 h): > 25 µM; EC50 [6]: > 16 µM"
"N[C@@H](Cc1ccccc1)[C@@H](O)CNc1ccc(C(F)(F)F)cc1 [LTC-1027, (2S,3S)-3-Amino-4-phenyl-1-((4-(trifluoromethyl)phenyl)amino)butan-2-ol]",72.2 ± 16.2,-0.24 ± 0.15,77.9 ± 1.82,0.64 ± 0.3,75.5 ± 3.25,11.2 ± 1.8,2.27 ± 0.89,61.8 ± 2.34,12 ± 0.47,79.1 ± 9.1,2.09 ± 3.63,96.1 ± 4.11,99.9 ± 8.05,105 to 107,79.3 ± 16.4,–,–
"CC(=O)c1ccc(NC[C@H](O)[C@@H](N)Cc2ccccc2)cc1 [LTC-1031, 1-(4-(((2S,3S)-3-Amino-2-hydroxy-4-phenylbutyl)amino)phenyl)ethan-1-one]",91.6 ± 2.08,62.7 ± 3.51,83.7 ± 2.96,44.9 ± 6.2,70.9 ± 2.23,75.5 ± 4.37,2.18 ± 0.95,58.4 ± 1.11,59.3 ± 2.74,74.1 ± 12.7,105 ± 18.2,95.4 ± 4.41,-0.69 ± 0.73,123 to 125,98 ± 5.56,–,–
"Cc1cccc(C)c1NC[C@H](O)[C@@H](N)Cc1ccccc1 [LTC-1041, (2S,3S)-3-Amino-1-((2,6-dimethylphenyl)amino)-4-phenylbutan-2-ol]",88 ± 2.36,15.5 ± 3.29,47.1 ± 4.67,20.3 ± 4.1,73.8 ± 2.47,70.5 ± 3.15,2.06 ± 1.4,60 ± 3.23,57.2 ± 4.4,85.2 ± 16.3,128 ± 30.1,100 ± 2.23,85.1 ± 13.9,63 to 65,71.6 ± 22.8,–,–
